Literature values in patent US9351995B1, “Compositions and methods of enhancing wound healing” (RED OAX HOLDINGS, LLC, priority 2011, dated 2016).

Legend:
[1] = system: fibroblast; settings: cited from earlier work
[2] = system: human surface respiratory epithelium; settings: cited from earlier work

[Br-].[Br-].[Mg+2] [MgBr2]
fibroblast outgrowth [1]: inhibitory effects on fibroblast outgrowth

COc1cc2c(c(OC)c1OC)-c1ccc(OC)c(=O)cc1[C@@H](NC(C)=O)CC2 [colchicine]
effect on repair of small-size injuries [2]: did not interrupt the repair process

C=C1[C@@H](C)[C@H]2[C@H](Cc3ccccc3)NC(=O)[C@]23OC(=O)/C=C/[C@H](O)CCC[C@@H](C)C/C=C/[C@H]3[C@@H]1O [cytochalasin B]
effect on repair of small-size injuries [2]: prevented cell migration
